Marks after values point to notes of the source that are not given here.
Test system: chicken embryos
Test: Metabolic profiling of blood plasma (GC-MS, LC-MS, OPLS-DA)
Type: in vivo, Gallus gallus domesticus
Method: Controls were injected with 20 μL vehicle only (DMSO).
Plasma was collected and stored at -70°C.
Metabolites in allantoic fluid and blood plasma were analyzed using gas chromatography-mass spectrometry (GC-MS) and liquid chromatography-mass spectrometry (LC-MS) as described in S1 Methods. Prior to GC-MS and LC-MS analysis, allantoic fluid (100 μL) and blood plasma (50 μL) were extracted. To each sample, 900 μL (allantoic fluid) or 450 μL (blood plasma) of extraction buffer (90/10 v/v methanol:water) including all internal standards were added. Standards for GC-MS were proline, succinic acid, glutamic acid, salicylic acid, alpha-ketoglutarate, putrescine, myristic acid, hexadecanoic acid, cholesterol, and sucrose. Standards for LC-MS were Val-Tyr-Val, Leu-enkephalin, sulfadimethoxine and reserpine. Samples were homogenized by shaking in a bead mill at a frequency of 30 Hz for 3 minutes and proteins were precipitated at +4°C on ice. The samples were centrifuged at +4°C, 14000 rpm, for 10 min. Then, 200 μL supernatant was transferred to a GC microvial and 200 μL was transferred to an LC microvial, and solvents were evaporated. Samples from the four replicate experiments were analyzed using in chronological order and within each replicate experiment the run order of the individual samples was randomized.
Multivariate statistical analyses of metabolite profiles were performed using the software package SIMCA-P version 13.0 (Umetrics, Umeå, Sweden). Data was centered and scaled to variance 1 (UV scaling) prior to modelling. To reduce unintended systematic variation caused by sample processing and instrument drift, GC-MS and LC-MS metabolite amounts (expressed as the area under the chromatographic peak) were normalized by Orthogonal Partial Least Squares analysis (O2PLS) prior to multivariate data analysis. O2PLS finds common (predictive) and unique (orthogonal) variation in two data matrices. If applied to find the common variation between the data matrix containing the measured metabolite concentrations and a matrix containing only the internal standards, the only common (predictive) variation expected is due to the unintended systematic variation. By deleting the contribution of the predictive latent variables, that variation can be removed from the data. Models obtained after this normalization contain in general less latent variables, and this simplification helps when deciding on the number of latent variables to be used. Following normalization, GC-MS and LC-MS data were analyzed together. Initially, a global Principal Component Analysis (PCA) was performed to get an overview of groups and trends and to identify outliers. Projections to latent structures by means of Orthogonal Partial Least Squares Discriminant Analysis (OPLS-DA) was used to model the relationship between the X-matrix (metabolite concentrations) and the Y matrix (class, i.e. exposure group or sex), and to find x-variables that were related to class belonging. OPLS-DA is a supervised prediction and regression method that rotates the projection plane to find the maximum covariance between the data and the class assignment. All groups were first analyzed together in a 5-class OPLS-DA and then each exposure group was analyzed against the control group in a 2-class OPLS-DA. Sex differences were analyzed both using the whole data set and in each group separately using 2-class OPLS-DA, with females and males as the two classes. Only variables with 80% or more nonzero values were included in the statistical models. […] The validity of each model was also checked using CV-ANOVA (ANOVA of the cross-validated residuals). A significance level of p < 0.05 was used. For each model, R ^2 X, R ^2 Y and Q ^2 values were calculated, where R ^2 X is a measure of the fraction of x variation modeled in the extracted latent variables, R ^2 Y is a measure of the fraction of y variation modeled and Q ^2 is an estimate of the predictive ability of the model and is calculated by cross-validation. […]

With `CN(CCOc1ccc(CC2SC(=O)NC2=O)cc1)c1ccccn1` (centres unmarked) [Rosiglitazone, rosiglitazone, reference compound] the “Mean concentration relative to control, feature Win006_C03” value (GC) was 1.2*, the “Mean concentration relative to control, feature Win011_C02 (Isoleucine)” value (GC) was 1.1 and the “Mean concentration relative to control, feature Win027_C13” value (GC) was 0.9. The “Mean concentration relative to control, feature Win031_C03 (Citric acid)” value (GC) was 1, the “Mean concentration relative to control, feature Win034_C08 (Tyrosine)” value (GC) was 1 and the “Mean concentration relative to control, feature Win034_C09 (Tyrosine)” value (GC) was 1.1. For the same compound, the “Mean concentration relative to control, feature Win039_C07” value (GC) was 1.2, the “Mean concentration relative to control, feature Win043_C02 (Cystathionine)” value (GC) was 1 and the “Mean concentration relative to control, feature Win061_C01” value (GC) was 0.9. For the same compound, the “Mean concentration relative to control, feature Win066_C03” value (GC) was 1, the “Mean concentration relative to control, feature Win088_C02” value (GC) was 1 and the “Mean concentration relative to control, feature 118.0284@2.480333 (C4H6O4)” value (LC) was 0.8**. The “Mean concentration relative to control, feature 122.0486@0.675613” value (LC) was 1, the “Mean concentration relative to control, feature 126.0428@1.2278157 (Thymine)” value (LC) was 1.0 and the “Mean concentration relative to control, feature 146.0362@0.7772238” value (LC) was 1.1. For the same compound, the “Mean concentration relative to control, feature 159.0686@1.1608156” value (LC) was 1.1, the “Mean concentration relative to control, feature 164.0449@0.7694838” value (LC) was 1.1 and the “Mean concentration relative to control, feature 202.1024@5.0303197 (C8H14N2O4)” value (LC) was 1.1. For the same compound, the “Mean concentration relative to control, feature 203.1162@0.5130696” value (LC) was 1, the “Mean concentration relative to control, feature 213.2458@7.4887733” value (LC) was 1 and the “Mean concentration relative to control, feature 215.047@1.6260729 (C5H14NO6P)” value (LC) was 0.9*. For the same compound, the “Mean concentration relative to control, feature 226.0721@1.9460537” value (LC) was 1, the “Mean concentration relative to control, feature 231.0174@1.6241412” value (LC) was 0.8* and the “Mean concentration relative to control, feature 233.1265@2.535991” value (LC) was 1. The “Mean concentration relative to control, feature 250.1317@2.1334834” value (LC) was 1.2, the “Mean concentration relative to control, feature 260.0508@0.69984084” value (LC) was 0.8* and the “Mean concentration relative to control, feature 276.0173@1.6283482” value (LC) was 0.9. For the same compound, the “Mean concentration relative to control, feature 278.0939@1.3354088” value (LC) was 0.9, the “Mean concentration relative to control, feature 293.0903@1.5739433” value (LC) was 1 and the “Mean concentration relative to control, feature 307.2147@7.5065937 (C18H29NO3)” value (LC) was 0.9. The “Mean concentration relative to control, feature 310.178@7.5343466” value (LC) was 1, the “Mean concentration relative to control, feature 339.3861@9.528681” value (LC) was 1.2 and the “Mean concentration relative to control, feature 342.2883@7.526812” value (LC) was 1. The “Mean concentration relative to control, feature 348.0675@1.5761927” value (LC) was 1, the “Mean concentration relative to control, feature 355.9454@0.68034226” value (LC) was 1 and the “Mean concentration relative to control, feature 362.1467@0.8461036” value (LC) was 1.1. For the same compound, the “Mean concentration relative to control, feature 366.1431@1.4228548” value (LC) was 0.9*, the “Mean concentration relative to control, feature 373.296@9.044806” value (LC) was 1 and the “Mean concentration relative to control, feature 375.3108@8.995564” value (LC) was 1. The “Mean concentration relative to control, feature 389.2686@9.046645” value (LC) was 1, the “Mean concentration relative to control, feature 407.0999@1.585909” value (LC) was 0.9* and the “Mean concentration relative to control, feature 412.135@2.4779084 (C17H24N4O6S)” value (LC) was 0.8**. The “Mean concentration relative to control, feature 444.3607@10.33052” value (LC) was 0.9, the “Mean concentration relative to control, feature 471.9819@0.685074” value (LC) was 1 and the “Mean concentration relative to control, feature 489.1508@8.562614” value (LC) was 0.7*. For the same compound, the “Mean concentration relative to control, feature 509.1184@2.4798179” value (LC) was 0.8**, the “Mean concentration relative to control, feature 525.2855@8.361063” value (LC) was 0.9 and the “Mean concentration relative to control, feature 545.2492@8.463657” value (LC) was 0.9. For the same compound, the “Mean concentration relative to control, feature 558.4095@9.459733” value (LC) was 1.2*, the “Mean concentration relative to control, feature 565.1902@0.7699907” value (LC) was 1.1 and the “Mean concentration relative to control, feature 577.2747@9.25652” value (LC) was 1.1. The “Mean concentration relative to control, feature 581.1643@0.77029324” value (LC) was 1.1, the “Mean concentration relative to control, feature 634.2403@1.9467853” value (LC) was 1 and the “Mean concentration relative to control, feature 644.1614@0.7647065” value (LC) was 1.1. The “Mean concentration relative to control, feature 659.5483@11.4915495” value (LC) was 1.0, the “Mean concentration relative to control, feature 698.2598@1.3599721” value (LC) was 1.2* and the “Mean concentration relative to control, feature 700.5514@10.765638” value (LC) was 1.1. The “Mean concentration relative to control, feature 755.5465@10.73882” value (LC) was 1.4*, the “Mean concentration relative to control, feature 827.5078@8.831237” value (LC) was 1 and the “Mean concentration relative to control, feature 875.4661@10.5661745” value (LC) was 1.0. For the same compound, the “Mean concentration relative to control, feature 1262.4865@1.947075” value (LC) was 1, the “Mean concentration relative to control, feature 1316.4163@1.9465046” value (LC) was 1.1* and the “Mean concentration relative to control, feature 1591.051@5.0189176” value (LC) was 0.8**. For the same compound, the “Mean concentration relative to control, feature 1591.388@5.0202384” value (LC) was 0.9* and the “Mean concentration relative to control, feature 1591.7203@5.018071” value (LC) was 0.9*.

Source: article PMC4666608, “Metabolic Profiling of Chicken Embryos Exposed to Perfluorooctanoic Acid (PFOA) and Agonists to Peroxisome Proliferator-Activated Receptors” (PLoS ONE, 2015)
